From patent publication US6355799B1, “Substituted benzene compounds, process for their preparation, and herbicidal and defoliant compositions containing them” (ISK Americas Incorporated, priority 1997, dated 2002)

What was measured:
Type in all cases: in vivo
[1] = test system: field corn (Zea mays L., var. Dekalb 535, CORN); assay: Pre-emerge test, crop safety; conditions: rated 14 days after application, 0 = no damage, 100 = complete death
In short: (§1)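 Fourteen days after spraying, crop and weed injury was graded visually from 0, no effect, to 100, every plant dead. Test substances were dissolved in acetone and applied at 15–1000 g ai/ha with a flat-fan nozzle. Application was either pre-emergence, one day after sowing, or post-emergence at the 2–3 leaf stage.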

[2] = test system: upland rice (Oryza sp., var. Tebonnet, RICE); assay: Pre-emerge test, crop safety; conditions: rated 14 days after application, 0 = no damage, 100 = complete death
In short: as §1

[3] = test system: velvetleaf (Abutilon theophrasti, ABUTH); assay: Pre-emerge test, greenhouse herbicide activity screening; conditions: rated 14 days after application, 0 = no damage, 100 = complete death
In short: as §1

[4] = test system: ivyleaf morningglory (Ipomoea hederacea, IPOHE); assay: as above; conditions: rated 14 days after application, 0 = no damage, 100 = complete death
In short: as §1

[5] = test system: common ragweed (Ambrosia artemisizfolia L., AMBEL); assay: as above; conditions: rated 14 days after application, 0 = no damage, 100 = complete death
In short: as §1

[6] = test system: johnsongrass (Sorghum halepense, SORHA); assay: as above; conditions: rated 14 days after application, 0 = no damage, 100 = complete death
In short: as §1

[7] = test system: lambsquarters (Chenopodium album, CHEAL); assay: as above; conditions: rated 14 days after application, 0 = no damage, 100 = complete death
In short: as §1

[8] = test system: large crabgrass (Digitaria sanguinalis, DIGSA); assay: as above; conditions: rated 14 days after application, 0 = no damage, 100 = complete death
In short: as §1

[9] = test system: sicklepod (Cassia obtusifolia, CASOB); assay: as above; conditions: rated 14 days after application, 0 = no damage, 100 = complete death
In short: as §1

[10] = test system: barnyardgrass (Echinochloa crus-galli, ECHCG); assay: as above; conditions: rated 14 days after application, 0 = no damage, 100 = complete death
In short: as §1

[11] = test system: green foxtail (Setaria viridis, SETVI); assay: as above; conditions: rated 14 days after application, 0 = no damage, 100 = complete death
In short: as §1

[12] = test system: redroot pigweed (Amaranthus retroflexus, AMARE); assay: as above; conditions: rated 14 days after application, 0 = no damage, 100 = complete death
In short: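 Sandy loam pots; pre-emerge: sown 1 d pre-spray, surface-watered after, then bottom-watered. Post-emerge: sown 8–21 d before, 2–3 leaf stage, + 0.25% v/v NIS, bottom-watered. Acetone, 187 l/ha track spray, 15–1000 g ai/ha. 0–100 injury score, day 14.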

[13] = test system: velvetleaf (Abutilon theophrasti, ABUTH); assay: Post-emerge test, greenhouse herbicide activity screening; conditions: post-emerge, 14 days after application, rating scale 0-100
In short: (§2)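 Rating: 0–100 visual injury, 14 DAA. Application: acetone, 187 l/ha, 15–1000 g ai/ha, flat-fan track sprayer with nozzle 40–45 cm above soil or canopy. Post-emerge runs used 0.25% v/v surfactant on 2–3 leaf plants.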

[14] = test system: ivyleaf morningglory (Ipomoea hederacea, IPOHE); assay: as above; conditions: post-emerge, 14 days after application, rating scale 0-100
In short: as §2

[15] = test system: redroot pigweed (Amaranthus retroflexus, AMARE); assay: as above; conditions: post-emerge, 14 days after application, rating scale 0-100
In short: as §2

[16] = test system: common ragweed (Ambrosia artemisizfolia L., AMBEL); assay: as above; conditions: post-emerge, 14 days after application, rating scale 0-100
In short: as §2

[17] = test system: johnsongrass (Sorghum halepense, SORHA); assay: as above; conditions: post-emerge, 14 days after application, rating scale 0-100
In short: as §2

[18] = test system: lambsquarters (Chenopodium album, CHEAL); assay: as above; conditions: post-emerge, 14 days after application, rating scale 0-100
In short: as §2

[19] = test system: large crabgrass (Digitaria sanguinalis, DIGSA); assay: as above; conditions: post-emerge, 14 days after application, rating scale 0-100
In short: as §2

[20] = test system: sicklepod (Cassia obtusifolia, CASOB); assay: as above; conditions: post-emerge, 14 days after application, rating scale 0-100
In short: as §2

[21] = test system: barnyardgrass (Echinochloa crus-galli, ECHCG); assay: as above; conditions: post-emerge, 14 days after application, rating scale 0-100
In short: as §2

[22] = test system: green foxtail (Setaria viridis, SETVI); assay: as above; conditions: post-emerge, 14 days after application, rating scale 0-100
In short: as §2

[23] = test system: field corn (Zea mays L., var. Dekalb 535, CORN); assay: Post-emerge test, crop safety; conditions: post-emerge, 14 days after application, rating scale 0-100
In short: as §1

[24] = test system: upland rice (Oryza sp., var. Tebonnet, RICE); assay: Post-emerge test, crop safety; conditions: post-emerge, 14 days after application, rating scale 0-100
In short: as §1

Compound: COc1c(Cl)cc(F)c(-n2c(=O)cc(C(F)(F)F)n(C)c2=O)c1NC(=O)c1cc(F)cc(F)c1 [2-50]
- Pre-emerge phytotoxicity rating (0-100), crop damage, CORN ([1]; 63 g ai/ha): 5
- Pre-emerge phytotoxicity rating (0-100), crop damage, CORN ([1]; 250 g ai/ha): 70
- Pre-emerge phytotoxicity rating (0-100), crop damage, RICE ([2]; 63 g ai/ha): 25
- Pre-emerge phytotoxicity rating (0-100), crop damage, RICE ([2]; 250 g ai/ha): 90
- Pre-emerge Herbicidal Activity, phytotoxicity rating (0-100), ABUTH ([3]; 63 g ai/ha): 100
- Pre-emerge Herbicidal Activity, phytotoxicity rating (0-100), ABUTH ([3]; 250 g ai/ha): 100
- Pre-emerge Herbicidal Activity, phytotoxicity rating (0-100), IPOHE ([4]; 63 g ai/ha): 70
- Pre-emerge Herbicidal Activity, phytotoxicity rating (0-100), IPOHE ([4]; 250 g ai/ha): 100
- Pre-emerge Herbicidal Activity, phytotoxicity rating (0-100), AMBEL ([5]; 63 g ai/ha): 60
- Pre-emerge Herbicidal Activity, phytotoxicity rating (0-100), AMBEL ([5]; 250 g ai/ha): 100
- Pre-emerge Herbicidal Activity, phytotoxicity rating (0-100), SORHA ([6]; 63 g ai/ha): 30
- Pre-emerge Herbicidal Activity, phytotoxicity rating (0-100), SORHA ([6]; 250 g ai/ha): 80
- Pre-emerge Herbicidal Activity, phytotoxicity rating (0-100), CHEAL ([7]; 63 g ai/ha): 100
- Pre-emerge Herbicidal Activity, phytotoxicity rating (0-100), CHEAL ([7]; 250 g ai/ha): 100
- Pre-emerge Herbicidal Activity, phytotoxicity rating (0-100), DIGSA ([8]; 63 g ai/ha): 70
- Pre-emerge Herbicidal Activity, phytotoxicity rating (0-100), DIGSA ([8]; 250 g ai/ha): 100
- Pre-emerge Herbicidal Activity, phytotoxicity rating (0-100), CASOB ([9]; 63 g ai/ha): 60
- Pre-emerge Herbicidal Activity, phytotoxicity rating (0-100), CASOB ([9]; 250 g ai/ha): 100
- Pre-emerge Herbicidal Activity, phytotoxicity rating (0-100), ECHCG ([10]; 63 g ai/ha): 10
- Pre-emerge Herbicidal Activity, phytotoxicity rating (0-100), ECHCG ([10]; 250 g ai/ha): 100
- Pre-emerge Herbicidal Activity, phytotoxicity rating (0-100), SETVI ([11]; 63 g ai/ha): 90
- Pre-emerge Herbicidal Activity, phytotoxicity rating (0-100), SETVI ([11]; 250 g ai/ha): 100
- Pre-emerge Herbicidal Activity, phytotoxicity rating (0-100), AMARE ([12]; 63 g ai/ha): 100
- Pre-emerge Herbicidal Activity, phytotoxicity rating (0-100), AMARE ([12]; 250 g ai/ha): 100
- phytotoxicity rating ABUTH ([13]; 63 g ai/ha): 100
- phytotoxicity rating ABUTH ([13]; 250 g ai/ha): 100
- phytotoxicity rating IPOHE ([14]; 63 g ai/ha): 100
- phytotoxicity rating IPOHE ([14]; 250 g ai/ha): 100
- phytotoxicity rating AMARE ([15]; 63 g ai/ha): 90
- phytotoxicity rating AMARE ([15]; 250 g ai/ha): 100
- phytotoxicity rating AMBEL ([16]; 63 g ai/ha): 40
- phytotoxicity rating AMBEL ([16]; 250 g ai/ha): 65
- phytotoxicity rating SORHA ([17]; 63 g ai/ha): 0
- phytotoxicity rating SORHA ([17]; 250 g ai/ha): 40
- phytotoxicity rating CHEAL ([18]; 63 g ai/ha): 70
- phytotoxicity rating CHEAL ([18]; 250 g ai/ha): 90
- phytotoxicity rating DIGSA ([19]; 63 g ai/ha): 10
- phytotoxicity rating DIGSA ([19]; 250 g ai/ha): 30
- phytotoxicity rating CASOB ([20]; 63 g ai/ha): 80
- phytotoxicity rating CASOB ([20]; 250 g ai/ha): 90
- phytotoxicity rating ECHCG ([21]; 63 g ai/ha): 0
- phytotoxicity rating ECHCG ([21]; 250 g ai/ha): 30
- phytotoxicity rating SETVI ([22]; 63 g ai/ha): 40
- phytotoxicity rating SETVI ([22]; 250 g ai/ha): 60
- phytotoxicity rating CORN ([23]; 63 g ai/ha): 10
- phytotoxicity rating CORN ([23]; 250 g ai/ha): 70
- phytotoxicity rating RICE ([24]; 63 g ai/ha): 60
- phytotoxicity rating RICE ([24]; 250 g ai/ha): 65

Compound: COc1c(Cl)cc(F)c(-n2c(=O)cc(C(F)(F)F)n(C)c2=O)c1NC(=O)c1c(F)c(F)c(F)c(F)c1F [2-52]
- Pre-emerge phytotoxicity rating (0-100), crop damage, CORN ([1]; 63 g ai/ha): 0
- Pre-emerge phytotoxicity rating (0-100), crop damage, RICE ([2]; 63 g ai/ha): 0
- Pre-emerge Herbicidal Activity, phytotoxicity rating (0-100), ABUTH ([3]; 63 g ai/ha): 10
- Pre-emerge Herbicidal Activity, phytotoxicity rating (0-100), IPOHE ([4]; 63 g ai/ha): 0
- Pre-emerge Herbicidal Activity, phytotoxicity rating (0-100), AMBEL ([5]; 63 g ai/ha): 0
- Pre-emerge Herbicidal Activity, phytotoxicity rating (0-100), SORHA ([6]; 63 g ai/ha): 0
- Pre-emerge Herbicidal Activity, phytotoxicity rating (0-100), CHEAL ([7]; 63 g ai/ha): 50
- Pre-emerge Herbicidal Activity, phytotoxicity rating (0-100), DIGSA ([8]; 63 g ai/ha): 0
- Pre-emerge Herbicidal Activity, phytotoxicity rating (0-100), CASOB ([9]; 63 g ai/ha): 0
- Pre-emerge Herbicidal Activity, phytotoxicity rating (0-100), ECHCG ([10]; 63 g ai/ha): 0
- Pre-emerge Herbicidal Activity, phytotoxicity rating (0-100), SETVI ([11]; 63 g ai/ha): 40
- Pre-emerge Herbicidal Activity, phytotoxicity rating (0-100), AMARE ([12]; 63 g ai/ha): 100
- phytotoxicity rating ABUTH ([13]; 63 g ai/ha): 30
- phytotoxicity rating IPOHE ([14]; 63 g ai/ha): 10
- phytotoxicity rating AMARE ([15]; 63 g ai/ha): 30
- phytotoxicity rating AMBEL ([16]; 63 g ai/ha): 20
- phytotoxicity rating SORHA ([17]; 63 g ai/ha): 0
- phytotoxicity rating CHEAL ([18]; 63 g ai/ha): 10
- phytotoxicity rating DIGSA ([19]; 63 g ai/ha): 0
- phytotoxicity rating CASOB ([20]; 63 g ai/ha): 0
- phytotoxicity rating ECHCG ([21]; 63 g ai/ha): 0
- phytotoxicity rating SETVI ([22]; 63 g ai/ha): 0
- phytotoxicity rating CORN ([23]; 63 g ai/ha): 0
- phytotoxicity rating RICE ([24]; 63 g ai/ha): 0
